# Assay results taken from US9406887B2, “Solution, organic semiconductor material, organic semiconductor film, electronic device and electronic equipment” (RICOH COMPANY, LTD., priority 2013, dated 2016).
# How the values were obtained:
# [1] = Solubility of the compound in an organic solvent (saturated solution at 25° C. after reflux); format: physicochemical; conditions: cooled to 25° C. after reflux; for solubility in CHCl3: chloroform
# Experimental: After the compound was added to […] of an organic solvent such as toluene, THF and chloroform until insoluble residue remained, the mixture was stirred for 10 min while the organic solvent was refluxed with heat. Next, after the mixture was cooled to have a temperature of 25° C., it was stirred for 1 hr. Further, after quietly put for 16 hrs, the top clear layer of the mixture was filtered through a PTFE filter having a hole diameter of 0.2 μm to prepare a saturated solution. Next, the solution was dried under reduced pressure and the solubility of the compound in an organic solvent was measured. The evaluation standard of the solubility of the compound in an organic solvent is as follows.
# [2] = Weight variation (TG) on heating, thermal analyzer EXSTRA6200; format: physicochemical; conditions: heated to 250° C. at 20° C./min, nitrogen atmosphere
# Experimental: After 50 mg (0.10 mmol) of the compound having the formula (1-1) were placed in an aluminum pan, they were heated to have a temperature of 250° C. at 20° C./min and weight variation (TG) thereof was measured using a thermal analyzer EXSTRA6200 from Seiko Instruments, Inc. in a nitrogen atmosphere. Thus, 29 mg (yield rate quant.) of a dark purple solid compound having the formula (2-1) was obtained.
SMILES,solubility in THF [1],solubility in CHCl3 [1],solubility in Toluene [1],weight reduction (TG) [2]
CC(C)(C)OC(=O)N1C(=O)C2=C(c3cccs3)N(C(=O)OC(C)(C)C)C(=O)C2=C1c1cccs1 [formula (1-1)],Excellent (not less than 0.5% by weight),Excellent (not less than 0.5% by weight),Excellent (not less than 0.5% by weight),34.6%
CC(C)(C)OC(=O)N1C(=O)C2=C(c3ccc(Br)s3)N(C(=O)OC(C)(C)C)C(=O)C2=C1c1ccc(Br)s1 [formula (1-4)],Excellent (not less than 0.5% by weight),Excellent (not less than 0.5% by weight),Good (not less than 0.1% and less than 0.5% by weight),31.6%
CCCCCCc1ccc(-c2ccc(C3=C4C(=O)N(C(=O)OC(C)(C)C)C(c5ccc(-c6ccc(CCCCCC)s6)s5)=C4C(=O)N3C(=O)OC(C)(C)C)s2)s1 [formula (1-12)],Good (not less than 0.1% and less than 0.5% by weight),Excellent (not less than 0.5% by weight),Excellent (not less than 0.5% by weight),23.8%
CCCCCCc1ccc(-c2ccc(-c3ccc(C4=C5C(=O)N(C(=O)OC(C)(C)C)C(c6ccc(-c7ccc(-c8ccc(CCCCCC)s8)s7)s6)=C5C(=O)N4C(=O)OC(C)(C)C)s3)s2)s1 [formula (1-16)],Excellent (not less than 0.5% by weight),Excellent (not less than 0.5% by weight),Excellent (not less than 0.5% by weight),19.8%
CCCCCCc1csc(-c2ccc(C3=C4C(=O)N(C(=O)OC(C)(C)C)C(c5ccc(-c6cc(CCCCCC)cs6)s5)=C4C(=O)N3C(=O)OC(C)(C)C)s2)c1 [formula (1-17)],Excellent (not less than 0.5% by weight),Excellent (not less than 0.5% by weight),Excellent (not less than 0.5% by weight),23.1%
CCCCCCOc1ccc(-c2ccc(C3=C4C(=O)N(C(=O)OC(C)(C)C)C(c5ccc(-c6ccc(OCCCCCC)cc6)s5)=C4C(=O)N3C(=O)OC(C)(C)C)s2)cc1 [formula (1-18)],Excellent (not less than 0.5% by weight),Excellent (not less than 0.5% by weight),Excellent (not less than 0.5% by weight),23.1%
CCCCCCCCCCCCOc1cc(-c2ccc(-c3ccc(C4=C5C(=O)N(C(=O)OC(C)(C)C)C(c6ccc(-c7ccc(-c8cc(OCCCCCCCCCCCC)c(OCCCCCCCCCCCC)c(OCCCCCCCCCCCC)c8)s7)s6)=C5C(=O)N4C(=O)OC(C)(C)C)s3)s2)cc(OCCCCCCCCCCCC)c1OCCCCCCCCCCCC [formula (1-25)],Excellent (not less than 0.5% by weight),Excellent (not less than 0.5% by weight),Excellent (not less than 0.5% by weight),10.3%
CCCCCCCCCCCCOc1cc(-c2ccc(-c3ccc(-c4ccc(C5=C6C(=O)N(C(=O)OC(C)(C)C)C(c7ccc(-c8ccc(-c9ccc(-c%10cc(OCCCCCCCCCCCC)c(OCCCCCCCCCCCC)c(OCCCCCCCCCCCC)c%10)s9)s8)s7)=C6C(=O)N5C(=O)OC(C)(C)C)s4)s3)s2)cc(OCCCCCCCCCCCC)c1OCCCCCCCCCCCC [formula (1-27)],Good (not less than 0.1% and less than 0.5% by weight),Excellent (not less than 0.5% by weight),Good (not less than 0.1% and less than 0.5% by weight),9.4%
O=C1NC(c2cccs2)=C2C(=O)NC(c3cccs3)=C12 [formula (2-1)],Poor (less than 0.005% by weight),Poor (less than 0.005% by weight),Poor (less than 0.005% by weight),–
